Results as given in patent US8815874B2, “Pyrazolopyrimidine derivative” (Kyowa Hakko Kirin Co., Ltd., priority 2010, dated 2014).

Each molecule was assayed on Dinitrofluorobenzene-Induced Ear Edema Reaction in Mouse (assay: Suppressive action on dinitrofluorobenzene-induced ear edema reaction in mouse (Test Example 2, 50% acetone/50% ethanol solvent)). Conditions: BALE/c mice (female); test compound 1% (w/v %) in 50% acetone/50% ethanol applied to front and back of auricle 1 hr before and 3 hr after induction; auricle thickness 24 hr after induction.
Type: in vivo
Protocol: (§1) 5-Week old BALE/c mice (female, supplied by CHARLES RIVER LABORATORIES JAPAN, INC) were purchased and, after quarantine and habituation, those showing satisfactory body weight increase and free of abnormal appearance were used to start the test from 7 weeks of age. The animals were housed and bred in plastic cages (6 mice per cage) in a breeding chamber set at room temperature 19-25° C., humidity 30-70%, 12 hr illumination per day (7 a.m.-7 p.m.), with free access to a commercially available solid feed and water.
(§2) One day before the test, the abdomen was shaved, and a solution of dinitrofluorobenzene (manufactured by Nacalai Tesque) in acetone (manufactured by Wako Pure Chemical Industries, Ltd.) {concentration 0.5% [weight (w)/volume (v) %]} was applied to the shaved part of BALE/c mice by 100 μL for sensitization. On day 5 after sensitization, a dinitrofluorobenzene-acetone solution [concentration 0.2% (w/v %)] was applied to the front and the back of the auricle by 10 μL each (total 20 μL) to induce reaction. A test compound dissolved in 50% acetone/50% ethanol (w/v %) to the concentration of 1% (w/v %) was applied to the front and the back of the auricle 1 hr before and 3 hr after the induction of reaction each by 10 μL (total 20 μL). After the application, the applied part was air-dried by a dryer.
(§3) A group administered with the test compound by coating was taken as a test compound administration group, and a group administered with 50% acetone/50% ethanol (w/v %) (solvent) by coating instead of the test compound was taken as a solvent administration group. In addition, a group free of sensitization and induction of reaction and administered with 50% acetone/50% ethanol (w/v %) by coating instead of the test compound was taken as a normal group. The thickness of the auricle was measured immediately before induction of reaction and 24 hr after the induction with a dial thickness gauge (manufactured by OZAKI MFG. CO., LTD., G-1A), and the difference between them was taken as ear edema. The ear edema suppressive rate (%) was calculated according to the following formula.

| SMILES | ear edema suppressive rate (%) |
| --- | --- |
| CCC(=O)NS(=O)(=O)c1cnn2c(Nc3cc(Cl)ccc3Cl)c(C(=O)N3CCC(c4ccc(F)cc4)CC3)cnc12 [compound a-22, N-{7-(2,5-dichlorophenylamino)-6-[4-(4-fluorophenyl)piperidine-1-carbonyl]pyrazolo[1,5-a]pyrimidin-3-ylsulfonyl}propionamide] | 16% |
| CONS(=O)(=O)c1cnn2c(Nc3cc(Cl)ccc3Cl)c(C(=O)N3CCC(c4ccc(F)cc4)CC3)cnc12 [compound a-27, 7-(2,5-dichlorophenylamino)-6-[4-(4-fluorophenyl)piperidine-1-carbonyl]-N-methoxypyrazolo[1,5-a]pyrimidine-3-sulfonamide] | 47% |
| CCC(=O)NS(=O)(=O)c1cnn2c(Nc3cc(C)c(F)cc3Cl)c(C(=O)N3CCC(c4ccc(F)cc4)CC3)cnc12 [compound a-40, N-{7-(2-chloro-4-fluoro-5-methylphenylamino)-6-[4-(4-fluorophenyl)piperidine-1-carbonyl]pyrazolo[1,5-a]pyrimidin-3-ylsulfonyl}propionamide] | 32% |
| CCC(=O)NS(=O)(=O)c1cnn2c(Nc3cc(C)ccc3Cl)c(C(=O)N3CC4(C3)CN(c3ccc(F)cc3)C4)cnc12 [compound a-60, N-{7-(2-chloro-5-methylphenylamino)-6-[6-(4-fluorophenyl)-2,6-diazaspiro[3,3]heptane-2-carbonyl]pyrazolo[1,5-a]pyrimidin-3-ylsulfonyl}propionamide] | 5% |

These molecules were tested on Dinitrofluorobenzene-Induced Ear Edema Reaction in Mouse (assay: Suppressive action on dinitrofluorobenzene-induced ear edema reaction in mouse (Test Example 1, acetone solvent)). Conditions: BALE/c mice (female); test compound 1% (w/v %) in acetone applied to front and back of auricle 1 hr before and 3 hr after induction; auricle thickness 24 hr after induction.
Type: in vivo
Protocol: as §1, with “5-Week to 6-week” for “5-Week”
as §2, with “acetone” for “50% acetone/50% ethanol (w/v %)”
as §3, with “acetone” for “50% acetone/50% ethanol (w/v %)”

| SMILES | ear edema suppressive rate (%) |
| --- | --- |
| O=C(NS(=O)(=O)c1cnn2c(Nc3ccccc3Cl)c(C(=O)N3CCC(c4ccccc4)CC3)cnc12)C1CC1 [compound a-6, N-[7-(2-chlorophenylamino)-6-(4-phenylpiperidine-1-carbonyl)pyrazolo[1,5-a]pyrimidin-3-ylsulfonyl]cyclopropanecarboxamide] | 30% |
| CCNC(=O)NS(=O)(=O)c1cnn2c(Nc3cc(C)ccc3Cl)c(C(=O)N3CCC(c4ccc(F)cc4)CC3)cnc12 [compound a-14, 7-(2-chloro-5-methylphenylamino)-N-(ethylcarbamoyl)-6-[4-(4-fluorophenyl)piperidine-1-carbonyl]pyrazolo[1,5-a]pyrimidine-3-sulfonamide] | 25% |
| CCNC(=O)NS(=O)(=O)c1cnn2c(Nc3ccc(F)cc3C)c(C(=O)N3CCC4(CC3)OCc3ccccc34)cnc12 [compound a-43, 7-(4-fluoro-2-methylphenylamino)-N-(ethylcarbamoyl)-6-[3H-spiro(isobenzofuran-1,4′-piperidine)-1-carbonyl]pyrazolo[1,5-a]pyrimidine-3-sulfonamide] | 40% |
